{"source": "patent US9018208B2", "about": "“Heterocycles as potassium channel modulators” (Icagen Inc., priority 2007, dated 2015)"}
{"tested_on": "SH-SY5Y M-currents (KCNQ2, KCNQ3 and KCNQ5)", "assay": "SH-SY5Y native cell line FLIPR assay (voltage-sensitive dye DiBAC)", "assay_type": "cell-based, mouse neuroblastoma, rat glioma hybrid cell line", "details": "FLIPR assay, SH-SY5Y native cell line; Table 4; read-out: SH-SY5Y EC50", "procedure,_shortened": "(§1)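 Response is peak DiBAC fluorescence change, normalised to the maximum from a positive control agent, sampled every 30 s over 25 min. Before compound addition, SH-SY5Y cells differentiated with PGE1 plus isomethylbutylxanthine were dye-loaded for 1 h in EBSS with […] DiBAC.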", "units": {"EC50": "µM"}}
{"smiles": "Cc1cccc2nc(NC(=O)CC(C)(C)C)c(-c3cccc(C(F)(F)F)c3)n12", "note": "[Compound 419, 3,3-dimethyl-N-(5-methyl-3-(3-(trifluoromethyl)phenyl)imidazo[1,2-a]pyridin-2-yl)butanamide]", "EC50": "< 0.5"}
{"smiles": "Cc1cccc2nc(NC(=O)CC(C)C(F)(F)F)c(-c3cccc(C(F)(F)F)c3)n12", "note": "(stereo not drawn) [Compound 420, 4,4,4-trifluoro-3-methyl-N-(5-methyl-3-(3-(trifluoromethyl)phenyl)imidazo[1,2-a]pyridin-2-yl)butanamide]", "EC50": "0.5 to 3"}
{"tested_on": "SH-SY5Y M-currents (KCNQ2, KCNQ3 and KCNQ5)", "assay": "SH-SY5Y native cell line FLIPR assay (voltage-sensitive dye DiBAC)", "assay_type": "cell-based, mouse neuroblastoma, rat glioma hybrid cell line", "details": "FLIPR assay, SH-SY5Y native cell line; Table 5; read-out: SH-SY5Y EC50", "procedure,_shortened": "as §1", "units": {"EC50": "µM"}}
{"smiles": "Cc1c(NC(=O)C(F)(F)F)nc2ccc(F)cn12", "note": "[Compound 421, 2,2,2-trifluoro-N-(6-fluoro-3-methylimidazo[1,2-a]pyridin-2-yl)acetamide]", "EC50": "3 to 10"}
{"smiles": "Cc1c(NC(=O)Cc2ccc(F)cc2)nc2ccc(F)cn12", "note": "[Compound 422, N-(6-fluoro-3-methylimidazo[1,2-a]pyridin-2-yl)-2-(4-fluorophenyl)acetamide]", "EC50": "3 to 10"}
{"smiles": "Cc1c(NC(=O)CC(C)(C)C)nc2ccc(F)cn12", "note": "[Compound 423, N-(6-fluoro-3-methylimidazo[1,2-a]pyridin-2-yl)-3,3-dimethylbutanamide]", "EC50": "3 to 10"}
{"smiles": "Cc1c(NC(=O)CC(F)(F)F)nc2ccc(F)cn12", "note": "[Compound 424, 3,3,3-trifluoro-N-(6-fluoro-3-methylimidazo[1,2-a]pyridin-2-yl)propanamide]", "EC50": "3 to 10"}
{"smiles": "C=Cc1c(NC(=O)Cc2ccc(F)cc2)nc2ccc(F)cn12", "note": "[Compound 425, N-(6-fluoro-3-vinylimidazo[1,2-a]pyridin-2-yl)-2-(4-fluorophenyl)acetamide]", "EC50": "0.5 to 3"}
{"smiles": "C=Cc1c(NC(=O)Cc2ccc(F)cc2)nc2cc(C(F)(F)F)ccn12", "note": "[Compound 426, 2-(4-fluorophenyl)-N-(7-(trifluoromethyl)-3-vinylimidazo[1,2-a]pyridin-2-yl)acetamide]", "EC50": "0.5 to 3"}
{"smiles": "C=Cc1c(NC(=O)CC(F)(F)F)nc2cc(C(F)(F)F)ccn12", "note": "[Compound 427, 3,3,3-trifluoro-N-(7-(trifluoromethyl)-3-vinylimidazo[1,2-a]pyridin-2-yl)propanamide]", "EC50": "3 to 10"}
{"tested_on": "SH-SY5Y M-currents (KCNQ2, KCNQ3 and KCNQ5)", "assay": "SH-SY5Y native cell line FLIPR assay (voltage-sensitive dye DiBAC)", "assay_type": "cell-based, mouse neuroblastoma, rat glioma hybrid cell line", "details": "SH-SY5Y native cell line, FLIPR assay (Table 3); read-out: SH-SY5Y EC50", "procedure,_shortened": "as §1", "units": {"EC50": "µM"}}
{"smiles": "Cc1ccc2nc(NC(=O)C3CCC(F)(F)CC3)c(-c3cc(C(F)(F)F)ccn3)n2n1", "note": "[Compound 397, 4,4-difluoro-N-(6-methyl-3-(4-(trifluoromethyl)pyridin-2-yl)imidazo[1,2-b]pyridazin-2-yl)cyclohexanecarboxamide]", "EC50": "3 to 10"}
{"smiles": "CC(C)(C)CC(=O)Nc1nc2ccc(C(F)(F)F)cn2c1-c1cc(C(F)(F)F)ccn1", "note": "[Compound 398, 3,3-dimethyl-N-(6-(trifluoromethyl)-3-(4-(trifluoromethyl)pyridin-2-yl)imidazo[1,2-a]pyridin-2-yl)butanamide]", "EC50": "< 0.5"}
{"smiles": "CC(CC(=O)Nc1nc2ccc(C(F)(F)F)cn2c1-c1cc(C(F)(F)F)ccn1)C(F)(F)F", "note": "(stereo not drawn) [Compound 399, 4,4,4-trifluoro-3-methyl-N-(6-(trifluoromethyl)-3-(4-(trifluoromethyl)pyridin-2-yl)imidazo[1,2-a]pyridin-2-yl)butanamide]", "EC50": "0.5 to 3"}
{"smiles": "O=C(Cc1ccc(F)cc1)Nc1nc2ccc(C(F)(F)F)cn2c1-c1cc(C(F)(F)F)ccn1", "note": "[Compound 400, 2-(4-fluorophenyl)-N-(6-(trifluoromethyl)-3-(4-(trifluoromethyl)pyridin-2-yl)imidazo[1,2-a]pyridin-2-yl)acetamide]", "EC50": "< 0.5"}
{"smiles": "CC(CC(=O)Nc1nc2ccc(F)cn2c1-c1cc(C(F)(F)F)ccn1)C(F)(F)F", "note": "(stereo not drawn) [Compound 401, 4,4,4-trifluoro-N-(6-fluoro-3-(4-(trifluoromethyl)pyridin-2-yl)imidazo[1,2-a]pyridin-2-yl)-3-methylbutanamide]", "EC50": "0.5 to 3"}
{"smiles": "O=C(Nc1nc2ccc(F)cn2c1-c1cc(C(F)(F)F)ccn1)C1CCC(F)(F)CC1", "note": "[Compound 402, 4,4-difluoro-N-(6-fluoro-3-(4-(trifluoromethyl)pyridin-2-yl)imidazo[1,2-a]pyridin-2-yl)cyclohexanecarboxamide]", "EC50": "< 0.5"}
{"smiles": "O=C(Cc1ccc(F)cc1)Nc1nc2ccccn2c1-c1cc(C(F)(F)F)ccn1", "note": "[Compound 403, 2-(4-fluorophenyl)-N-(3-(4-(trifluoromethyl)pyridin-2-yl)imidazo[1,2-a]pyridin-2-yl)acetamide]", "EC50": "< 0.5"}
{"smiles": "CC(C)(C)CC(=O)Nc1nc2ccccn2c1-c1cc(C(F)(F)F)ccn1", "note": "[Compound 404, 3,3-dimethyl-N-(3-(4-(trifluoromethyl)pyridin-2-yl)imidazo[1,2-a]pyridin-2-yl)butanamide]", "EC50": "0.5 to 3"}
{"smiles": "CC(CC(=O)Nc1nc2ccccn2c1-c1cc(C(F)(F)F)ccn1)C(F)(F)F", "note": "(stereo not drawn) [Compound 405, 4,4,4-trifluoro-3-methyl-N-(3-(4-(trifluoromethyl)pyridin-2-yl)imidazo[1,2-a]pyridin-2-yl)butanamide]", "EC50": "0.5 to 3"}
{"smiles": "CC(C)(C)CC(=O)Nc1nc2ccccn2c1-c1nccs1", "note": "[Compound 406, 3,3-dimethyl-N-(3-(thiazol-2-yl)imidazo[1,2-a]pyridin-2-yl)butanamide]", "EC50": "0.5 to 3"}
{"smiles": "O=C(Cc1ccc(F)cc1)Nc1nc2ccccn2c1-c1nccs1", "note": "[Compound 407, 2-(4-fluorophenyl)-N-(3-(thiazol-2-yl)imidazo[1,2-a]pyridin-2-yl)acetamide]", "EC50": "0.5 to 3"}
{"smiles": "CC(CC(=O)Nc1nc2ccccn2c1-c1nccs1)C(F)(F)F", "note": "(stereo not drawn) [Compound 408, 4,4,4-trifluoro-3-methyl-N-(3-(thiazol-2-yl)imidazo[1,2-a]pyridin-2-yl)butanamide]", "EC50": "3 to 10"}
{"smiles": "O=C(Nc1nc2ccccn2c1-c1nccs1)C1CCC(F)(F)CC1", "note": "[Compound 409, 4,4-difluoro-N-(3-(thiazol-2-yl)imidazo[1,2-a]pyridin-2-yl)cyclohexanecarboxamide]", "EC50": "0.5 to 3"}
{"smiles": "O=C(Cc1ccc(F)cc1)Nc1nc2ccc(F)cn2c1-c1cc(C(F)(F)F)ccn1", "note": "[Compound 410, N-(6-fluoro-3-(4-(trifluoromethyl)pyridin-2-yl)imidazo[1,2-a]pyridin-2-yl)-2-(4-fluorophenyl)acetamide]", "EC50": "< 0.5"}
{"smiles": "O=C(Nc1nc2ccccn2c1-c1cc(C(F)(F)F)ccn1)C1CCC(F)(F)CC1", "note": "[Compound 411, 4,4-difluoro-N-(3-(4-(trifluoromethyl)pyridin-2-yl)imidazo[1,2-a]pyridin-2-yl)cyclohexanecarboxamide]", "EC50": "< 0.5"}
{"smiles": "O=C(Nc1nc2ccc(F)cn2c1-c1cc(C(F)(F)F)ccn1)C1CC1(F)F", "note": "(stereo not drawn) [Compound 412, 2,2-difluoro-N-(6-fluoro-3-(4-(trifluoromethyl)pyridin-2-yl)imidazo[1,2-a]pyridin-2-yl)cyclopropanecarboxamide]", "EC50": "3 to 10"}
{"smiles": "O=C(Nc1nc2ccccn2c1-c1cc(C(F)(F)F)ccn1)C1CC1(F)F", "note": "(stereo not drawn) [Compound 413, 2,2-difluoro-N-(3-(4-(trifluoromethyl)pyridin-2-yl)imidazo[1,2-a]pyridin-2-yl)cyclopropanecarboxamide]", "EC50": "0.5 to 3"}
{"smiles": "CC(C)(C)CC(=O)Nc1nc2ccccn2c1-c1cscn1", "note": "[Compound 414, 3,3-dimethyl-N-(3-(thiazol-4-yl)imidazo[1,2-a]pyridin-2-yl)butanamide]", "EC50": "3 to 10"}
{"smiles": "COc1ccc2nc(NC(=O)CC(C)(C)C)c(-c3nccs3)n2n1", "note": "[Compound 415, N-(6-methoxy-3-(thiazol-2-yl)imidazo[1,2-b]pyridazin-2-yl)-3,3-dimethylbutanamide]", "EC50": "3 to 10"}
{"smiles": "Cc1nc(-c2c(NC(=O)CC(C)(C)C)nc3ccccn23)cs1", "note": "[Compound 416, 3,3-dimethyl-N-(3-(2-methylthiazol-4-yl)imidazo[1,2-a]pyridin-2-yl)butanamide]", "EC50": "3 to 10"}
{"tested_on": "SH-SY5Y M-currents (KCNQ2, KCNQ3 and KCNQ5)", "assay": "SH-SY5Y native cell line FLIPR assay (voltage-sensitive dye DiBAC)", "assay_type": "cell-based, mouse neuroblastoma, rat glioma hybrid cell line", "details": "SH-SY5Y native cell line, FLIPR assay (Table 6); read-out: SH-SY5Y EC50", "procedure,_shortened": "as §1", "units": {"EC50": "µM"}}
{"smiles": "CC(C)(CC(=O)Nc1nc2ccc(C(F)(F)F)cn2c1C1CC1)C(F)(F)F", "note": "[Compound 432, N-(3-cyclopropyl-6-(trifluoromethyl)imidazo[1,2-a]pyridin-2-yl)-4,4,4-trifluoro-3,3-dimethylbutanamide]", "EC50": "< 0.5"}
{"smiles": "CC(C)(C)Cc1c(NC(=O)CC(C)(C)C(F)(F)F)nc2ccc(C(F)(F)F)cn12", "note": "[Compound 440, 4,4,4-trifluoro-3,3-dimethyl-N-(3-neopentyl-6-(trifluoromethyl)imidazo[1,2-a]pyridin-2-yl)butanamide]", "EC50": "< 0.5"}
{"smiles": "CC(C)(CC(=O)Nc1nc2ccc(C(F)(F)F)cn2c1C1CCCCC1)C(F)(F)F", "note": "[Compound 441, N-(3-cyclohexyl-6-(trifluoromethyl)imidazo[1,2-a]pyridin-2-yl)-4,4,4-trifluoro-3,3-dimethylbutanamide]", "EC50": "< 0.5"}
{"smiles": "CC(C)(CC(=O)Nc1nc2ccc(C(F)(F)F)cn2c1C1CCCC1)C(F)(F)F", "note": "[Compound 442, N-(3-cyclopentyl-6-(trifluoromethyl)imidazo[1,2-a]pyridin-2-yl)-4,4,4-trifluoro-3,3-dimethylbutanamide]", "EC50": "< 0.5"}
{"smiles": "CC(C)CCc1c(NC(=O)CC(C)(C)C(F)(F)F)nc2ccc(C(F)(F)F)cn12", "note": "[Compound 443, 4,4,4-trifluoro-N-(3-isopentyl-6-(trifluoromethyl)imidazo[1,2-a]pyridin-2-yl)-3,3-dimethylbutanamide]", "EC50": "< 0.5"}
{"smiles": "CC(C)(CC(=O)Nc1nc2ccc(F)cn2c1CC1CCCCC1)C(F)(F)F", "note": "[Compound 444, N-(3-(cyclohexylmethyl)-6-fluoroimidazo[1,2-a]pyridin-2-yl)-4,4,4-trifluoro-3,3-dimethylbutanamide]", "EC50": "< 0.5"}
{"smiles": "CC1(CC(=O)Nc2nc3ccc(C(F)(F)F)nn3c2C2CC2)CCCC1", "note": "[Compound 445, N-(3-cyclopropyl-6-(trifluoromethyl)imidazo[1,2-b]pyridazin-2-yl)-2-(1-methylcyclopentyl)acetamide]", "EC50": "< 0.5"}
{"smiles": "O=C(Nc1nc2ccc(C(F)(F)F)nn2c1C1CCCC1)c1ccc(F)c(F)c1", "note": "[Compound 447, N-(3-cyclopentyl-6-(trifluoromethyl)imidazo[1,2-b]pyridazin-2-yl)-3,4,-difluorobenzamide]", "EC50": "0.5 to 3"}
{"tested_on": "SH-SY5Y M-currents (KCNQ2, KCNQ3 and KCNQ5)", "assay": "SH-SY5Y native cell line FLIPR assay (voltage-sensitive dye DiBAC)", "assay_type": "cell-based, mouse neuroblastoma, rat glioma hybrid cell line", "details": "read-out: SH-SY5Y_EC50", "procedure,_shortened": "as §1", "units": {"EC50": "µM"}}
{"smiles": "Cc1c(NC(=O)CC(F)(F)F)nc2ccc(F)cn12", "note": "[Compound 424, 3,3,3-trifluoro-N-(6-fluoro-3-methylimidazo[1,2-a]pyridin-2-yl)propanamide]", "EC50": 10}
{"tested_on": "SH-SY5Y M-currents (KCNQ2, KCNQ3 and KCNQ5)", "assay": "SH-SY5Y native cell line FLIPR assay (voltage-sensitive dye DiBAC)", "assay_type": "cell-based, mouse neuroblastoma, rat glioma hybrid cell line", "details": "unit inferred; read-out: SH-SY5Y_EC50", "procedure,_shortened": "as §1", "units": {"EC50": "µM"}}
{"smiles": "Cc1cccc2nc(NC(=O)CC(C)(C)C)c(-c3cccc(C(F)(F)F)c3)n12", "note": "[Compound 419, 3,3-dimethyl-N-(5-methyl-3-(3-(trifluoromethyl)phenyl)imidazo[1,2-a]pyridin-2-yl)butanamide]", "EC50": 0.34}
